Test results reported in ChEMBL document CHEMBL1150518, “Balanced angiotensin II receptor antagonists. III. The effects of substitution at the imidazole 5-position” (Bioorg Med Chem Lett, 1994).

How the values were obtained:
[1] = molecular target: T1, Type-2 angiotensin II receptor (Homo sapiens, UniProt P50052); test: Binding affinity for angiotensin II AT-2 receptor
T1 sequence (P50052 whole entry): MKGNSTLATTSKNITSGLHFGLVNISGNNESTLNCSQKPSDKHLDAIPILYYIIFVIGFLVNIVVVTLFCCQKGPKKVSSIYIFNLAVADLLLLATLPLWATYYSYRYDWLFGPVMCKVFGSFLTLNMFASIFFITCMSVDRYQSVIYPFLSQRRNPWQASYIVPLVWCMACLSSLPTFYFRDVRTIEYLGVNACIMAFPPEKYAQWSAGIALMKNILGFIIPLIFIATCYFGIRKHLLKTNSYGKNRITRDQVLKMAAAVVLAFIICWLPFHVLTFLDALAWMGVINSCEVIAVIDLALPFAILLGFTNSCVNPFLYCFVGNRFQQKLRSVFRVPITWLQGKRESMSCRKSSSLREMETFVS

[2] = molecular target: T2, Type-1 angiotensin II receptor (Homo sapiens, UniProt P30556); test: Binding affinity for Angiotensin II receptor, type 1
T2 sequence (P30556 whole entry): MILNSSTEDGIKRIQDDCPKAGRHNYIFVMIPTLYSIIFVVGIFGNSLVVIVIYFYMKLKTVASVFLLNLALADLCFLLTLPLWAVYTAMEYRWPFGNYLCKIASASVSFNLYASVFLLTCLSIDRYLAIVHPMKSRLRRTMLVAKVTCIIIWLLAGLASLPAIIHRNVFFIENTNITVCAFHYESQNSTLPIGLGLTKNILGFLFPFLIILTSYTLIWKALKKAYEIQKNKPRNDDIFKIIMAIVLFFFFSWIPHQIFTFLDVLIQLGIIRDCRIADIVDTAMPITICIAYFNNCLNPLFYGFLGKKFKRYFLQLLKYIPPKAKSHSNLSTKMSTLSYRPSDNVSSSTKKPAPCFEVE

Structure (SMILES) | IC50 [1] [nM] | IC50 [2] [nM]
CCCc1nc(CC)c(C(=O)OCc2ccccc2NC(=O)c2ccccc2)n1Cc1ccc(-c2ccccc2S(=O)(=O)NC(=O)OCCC(C)C)cc1F | 1 | 0.3
CCCc1nc(CC)c(C(=O)OCCCN2C(=O)c3ccccc3C2=O)n1Cc1ccc(-c2ccccc2S(=O)(=O)NC(=O)OCCC(C)C)cc1F | 3 | 0.1
CCCCCOC(=O)NS(=O)(=O)c1ccccc1-c1ccc(Cn2c(CCC)nc(CC)c2C(=O)OCCC(=O)Nc2ccccc2)c(F)c1 | 1 | 0.1
CCCc1nc(CC)c(C(=O)OCc2cccc(C(=O)c3ccccc3)c2)n1Cc1ccc(-c2ccccc2-c2nn[nH]n2)cc1 | 1000 | 9
CCCc1nc(CC)c(C(=O)OCC#CC(=O)N(c2ccccc2)c2ccccc2)n1Cc1ccc(-c2ccccc2-c2nn[nH]n2)cc1 | 600 | 40
CCCc1nc(CC)c(C(=O)OCc2ccccc2C(=O)c2ccccc2)n1Cc1ccc(-c2ccccc2S(=O)(=O)NC(=O)OCCc2ccccc2)cc1 | 2.1 | 0.74
CCCc1nc(CC)c(C(=O)OCCCOc2ccccc2)n1Cc1ccc(-c2ccccc2S(=O)(=O)NC(=O)OCCC(C)C)cc1F | 2 | 0.1
CCCc1nc(CC)c(C(=O)OCCC[S+]([O-])c2ccccc2)n1Cc1ccc(-c2ccccc2S(=O)(=O)NC(=O)OCCC(C)C)cc1F (centres undefined) | 1 | 0.2
CCCc1nc(CC)c(C(=O)OCc2cccc(C(=O)c3ccccc3)c2)n1Cc1ccc(-c2ccccc2S(=O)(=O)NC(=O)OCCC(C)C)cc1F | 0.9 | 0.6
CCCc1nc(CC)c(C(=O)OCCCS(=O)(=O)c2ccccc2)n1Cc1ccc(-c2ccccc2S(=O)(=O)NC(=O)OCCC(C)C)cc1F | 2 | 0.2
CCCc1nc(CC)c(C(=O)OCCCC(=O)c2ccccc2)n1Cc1ccc(-c2ccccc2S(=O)(=O)NC(=O)OCCC(C)C)cc1F | 5 | 0.1
CCCCN(Cc1ccccc1)C(=O)CCCOC(=O)c1c(CC)nc(CCC)n1Cc1ccc(-c2ccccc2-c2nn[nH]n2)cc1 | 300 | 10
CCCc1nc(CC)c(C(=O)OCCN(C(=O)OCCC(C)C)c2ccccc2)n1Cc1ccc(-c2ccccc2S(=O)(=O)NC(=O)OCCC(C)C)cc1F | 4 | 0.2
CCCc1nc(CC)c(C(=O)NCc2ccccc2[S+]([O-])c2ccccc2)n1Cc1ccc(-c2ccccc2S(=O)(=O)NC(=O)OCCC(C)C)cc1F (centres undefined) | 5 | 0.6
CCCc1nc(CC)c(C(=O)OCc2ccccc2-c2ccccc2)n1Cc1ccc(-c2ccccc2-c2nnn[nH]2)cc1 | 2000 | 3
CCCc1nc(CC)c(C(=O)OCCCSc2ccccc2)n1Cc1ccc(-c2ccccc2S(=O)(=O)NC(=O)OCCC(C)C)cc1F | 2 | 0.2
CCCCN(Cc1ccccc1)C(=O)CCCOC(=O)c1c(CC)nc(CCC)n1Cc1ccc(-c2ccccc2S(=O)(=O)NC(=O)OCCC(C)C)cc1F | 5 | 0.2
CCCCN(CCCC)C(=O)CCCOC(=O)c1c(CC)nc(CCC)n1Cc1ccc(-c2ccccc2-c2nnn[nH]2)cc1 | 500 | 30

Structure (SMILES) | IC50 [1] [nM] | IC50 [2] [nM]
CCCc1nc(CC)c(C(=O)OCc2ccccc2C(=O)c2ccccc2)n1Cc1ccc(-c2ccccc2S(=O)(=O)NC(=O)OC)cc1 | 10 | 0.6
CCCc1nc(CC)c(C(=O)OCCCOCc2ccccc2)n1Cc1ccc(-c2ccccc2S(=O)(=O)NC(=O)OCCC(C)C)cc1F | 2 | 0.1
CCCc1nc(CC)c(C(=O)OC(C(=O)c2ccccc2)c2ccccc2)n1Cc1ccc(-c2ccccc2S(=O)(=O)NC(=O)OCCC(C)C)cc1F (centres undefined) | 3 | 0.8
CCCc1nc(CC)c(C(=O)OCc2ccc(C(=O)c3ccccc3)cc2)n1Cc1ccc(-c2ccccc2-c2nn[nH]n2)cc1 | 2000 | 9
CCCCN(Cc1ccccc1)C(=O)C#CCOC(=O)c1c(CC)nc(CCC)n1Cc1ccc(-c2ccccc2-c2nnn[nH]2)cc1 | 400 | 10
CCCc1nc(CC)c(C(=O)OCCCC(=O)Nc2ccccc2)n1Cc1ccc(-c2ccccc2S(=O)(=O)NC(=O)OCCC(C)C)cc1F | 5 | 0.2
CCCc1nc(CC)c(C(=O)OCc2ccc(C(=O)N(c3ccccc3)c3ccccc3)cc2)n1Cc1ccc(-c2ccccc2-c2nnn[nH]2)cc1 | 200 | 20
CCCc1nc(CC)c(C(=O)OCCN2C(=O)c3ccccc3C2=O)n1Cc1ccc(-c2ccccc2S(=O)(=O)NC(=O)OCCC(C)C)cc1F | 7 | 0.2
CCCc1nc(CC)c(C(=O)OCc2ccccc2C(=O)c2ccccc2)n1Cc1ccc(-c2ccccc2S(=O)(=O)NC(=O)OCCc2ccccc2)cc1F | 0.69 | 0.57
CCCc1nc(CC)c(C(=O)OCCCCOc2ccccc2)n1Cc1ccc(-c2ccccc2S(=O)(=O)NC(=O)OCCC(C)C)cc1F | 2 | 0.2
CCCc1nc(CC)c(C(=O)NCc2ccccc2Sc2ccccc2)n1Cc1ccc(-c2ccccc2S(=O)(=O)NC(=O)OCCC(C)C)cc1F | 3 | 0.4
CCCc1nc(CC)c(C(=O)OCc2ccc(-c3ccccc3)cc2)n1Cc1ccc(-c2ccccc2-c2nnn[nH]2)cc1 | 3000 | 3
CCCc1nc(CC)c(C(=O)NCCCOc2ccccc2)n1Cc1ccc(-c2ccccc2S(=O)(=O)NC(=O)OCCC(C)C)cc1F | 9 | 0.3
CCCc1nc(CC)c(C(=O)OCC(=O)c2ccccc2)n1Cc1ccc(-c2ccccc2S(=O)(=O)NC(=O)OCCC(C)C)cc1F | 2 | 0.1
CCCc1nc(CC)c(C(=O)OCc2cccc(C(=O)N(c3ccccc3)c3ccccc3)c2)n1Cc1ccc(-c2ccccc2-c2nn[nH]n2)cc1 | 300 | 30
CCCc1nc(CC)c(C(=O)OCc2ccccc2C(=O)c2ccccc2)n1Cc1ccc(-c2ccccc2S(=O)(=O)NC(=O)OCC(C)C)cc1F | 1 | 0.5
CCCCN(Cc1ccccc1)C(=O)c1ccc(COC(=O)c2c(CC)nc(CCC)n2Cc2ccc(-c3ccccc3-c3nn[nH]n3)cc2)cc1 | 200 | 8
CCCc1nc(CC)c(C(=O)OCCN(C(=O)c2ccccc2)c2ccccc2)n1Cc1ccc(-c2ccccc2S(=O)(=O)NC(=O)OCCC(C)C)cc1F | 2 | 0.1

Results, then the compound that gave them:

IC50 [1] [nM] | IC50 [2] [nM] | Structure (SMILES)
2 | 0.2 | CCCc1nc(CC)c(C(=O)OCc2ccccc2[S+]([O-])c2ccccc2)n1Cc1ccc(-c2ccccc2S(=O)(=O)NC(=O)OCCC(C)C)cc1F (centres undefined)
10 | 0.3 | CCCOC(=O)NS(=O)(=O)c1ccccc1-c1ccc(Cn2c(CCC)nc(CC)c2C(=O)OCc2cccc(C(=O)c3ccccc3)c2)c(F)c1
2 | 1 | CCCc1nc(CC)c(C(=O)OCc2ccccc2Sc2ccccc2)n1Cc1ccc(-c2ccccc2S(=O)(=O)NC(=O)OCCC(C)C)cc1F
20 | 0.6 | CCCc1nc(CC)c(C(=O)OCc2ccccc2-c2ccsc2)n1Cc1ccc(-c2ccccc2S(=O)(=O)NC(=O)OCCC(C)C)cc1F
1 | 0.1 | CCCc1nc(CC)c(C(=O)OCc2ccccc2OC)n1Cc1ccc(-c2ccccc2S(=O)(=O)NC(=O)OCCC(C)C)cc1F
3 | 0.3 | CCCc1nc(CC)c(C(=O)OCc2ccccc2C(=O)C(C)(C)C)n1Cc1ccc(-c2ccccc2S(=O)(=O)NC(=O)OCCC(C)C)cc1F
10 | 3 | CCCc1nc(CC)c(C(=O)OCc2ccccc2OCCC(C)C)n1Cc1ccc(-c2ccccc2S(=O)(=O)NC(=O)OCCC(C)C)cc1F
3 | 0.3 | CCCc1nc(CC)c(C(=O)OCc2ccccc2-c2ccccn2)n1Cc1ccc(-c2ccccc2S(=O)(=O)NC(=O)OCCC(C)C)cc1F
10 | 0.8 | CCCOC(=O)NS(=O)(=O)c1ccccc1-c1ccc(Cn2c(CCC)nc(CC)c2C(=O)OCc2ccccc2-c2cncnc2)c(F)c1
20 | 0.3 | CCCOC(=O)NS(=O)(=O)c1ccccc1-c1ccc(Cn2c(CCC)nc(CC)c2C(=O)OCc2ccccc2-c2ccsc2)c(F)c1
3 | 0.6 | CCCCOC(=O)NS(=O)(=O)c1ccccc1-c1ccc(Cn2c(CCC)nc(CC)c2C(=O)OCc2ccccc2Oc2ccccc2)c(F)c1
9 | 3 | CCCc1nc(CC)c(C(=O)OCc2ccccc2-c2ccccc2)n1Cc1ccc(-c2ccccc2S(=O)(=O)NC(=O)OCCC(C)C)cc1F
3 | 0.5 | CCCOC(=O)NS(=O)(=O)c1ccccc1-c1ccc(Cn2c(CCC)nc(CC)c2C(=O)OCc2ccccc2-c2cccs2)c(F)c1
0.9 | 0.2 | CCCCOC(=O)NS(=O)(=O)c1ccccc1-c1ccc(Cn2c(CCC)nc(CC)c2C(=O)OCc2ccccc2C(=O)c2ccccc2)c(F)c1
5 | 0.4 | CCCc1nc(CC)c(C(=O)OCc2ccccc2S(=O)(=O)c2ccccc2)n1Cc1ccc(-c2ccccc2S(=O)(=O)NC(=O)OCCC(C)C)cc1F
3 | 0.8 | CCCc1nc(CC)c(C(=O)OCc2ccccc2-c2cccs2)n1Cc1ccc(-c2ccccc2S(=O)(=O)NC(=O)OCCC(C)C)cc1F
